Read-outs that look alike come from different tables or passages of the source.
What was measured:
[1] = test system: HSV-2; assay: Plaque reduction assay (PRA), HSV-2 in Vero cells; format: cell-based, herpes simplex 2; settings: for antiviral activity by PRA: wild-type HSV-2; for in vitro antiviral activity (concluding summary, words): HSV-2; for factor by which less active than ACV (IC50): representative wild-type HSV strains, PRA
Procedure: (§1) Top leading compounds were purchased from Sigma-Aldrich or ChemBridge for in vitro testing. On the day of the assay, compounds were prepared in DMSO at a concentration of 10 mM. Stock solutions were then diluted in Eagle's minimal essential medium (MEM) to the appropriate concentrations. ACV, GCV and FOS (prepared in MEM) were used as comparators for susceptible and resistant recombinant viruses and clinical isolates.
(§2) Antiviral activity of compounds 1 to 8 was first tested at two concentrations, i.e. 1 μM and 10 μM, along with currently-available first-line drugs (ACV for HSV/VZV and GCV for CMV). Then, 50% inhibitory concentration (IC50) values were determined for the top leading compounds in comparison with ACV, GCV and FOS using a standard plaque reduction assay (PRA). Briefly, Vero cells or HFFs seeded in 24-well plates were inoculated with 40 plaque forming units (PFUs) of recombinant viruses or clinical isolates. Infected cells were incubated with serial drug concentrations for appropriate periods of time. Cells were fixed and stained. The number of plaques was counted in each well and expressed in percentage of the PFUs in no-drug control wells. Recombinant and clinical viral strains were considered resistant to a drug if their IC50 values were at least 2.5 times greater than that of the representative wild-type strains.

[2] = test system: CMV; assay: Plaque reduction assay (PRA), CMV in HFFs; format: cell-based, cytomegalovirus; settings: for antiviral activity by PRA: wild-type CMV isolate
Procedure: as §1, §2

[3] = test system: HSV-1; assay: Plaque reduction assay (PRA), HSV-1 in Vero cells; format: cell-based, herpes simplex 1; settings: for antiviral activity by PRA: wild-type HSV-1; for in vitro antiviral activity (concluding summary, words): HSV-1; for factor by which less active than ACV (IC50): representative wild-type HSV strains, PRA
Procedure: as §1, §2

[4] = test system: VZV; assay: Plaque reduction assay (PRA), VZV in HFFs; format: cell-based, varicella zoster virus; settings: for antiviral activity by PRA: ACV-resistant VZV strains; for in vitro antiviral activity (concluding summary, words): VZV
Procedure: as §1, §2

[5] = test system: Human foreskin fibroblasts (HFFs); assay: MTS cell proliferation (cytotoxicity) assay on HFFs; settings: for toxicity (CC50) compared with ACV, GCV and FOS: HFFs, MTS assay
Procedure: (§3) Human foreskin fibroblasts (HFFs) and African green monkey kidney cells (Vero) were grown in MEM supplemented with 10% fetal bovine serum. Cells were maintained at 37° C. in a humidified 5% CO2 atmosphere. Vero cells and HFFs were used for propagation of viral strains and susceptibility assays for HSV-1/HSV-2 and VZV/CMV, respectively. Clinical strains H25 (HSV-1), HSV22 (HSV-2) as well as laboratory strains KOS(HSV-1), Ellen (VZV) and AD169 (CMV) were used as wild-type susceptible reference isolates. Clinical strains C119629 (HSV-1), C114093 (HSV-1), C80249 (HSV-1), L920062 (HSV-1), MS2 (HSV-2), C75134 (HSV-2), W-940012 (HSV-2), C72984 (HSV-2), D-900180 (HSV-2), M-890546 (HSV-2), P-920056 (HSV-2) and GB2000VZV (VZV) as well as laboratory strains Xbaf (CMV) and VQA3 (CMV) were used as drug (ACV/GCV/FOS)— resistant isolates. All clinical strains starting with the letter C originated from the Quebec City clinical virology laboratory.
(§4) This assay is based on the use of solutions of a tetrazolium salt (3-(4,5-dimethylthiazol-2-yl)-5-(3-carboxymethoxyphenyl)-2-(4-sulphophenyl)-2H-tetrazolium, inner salt; MTS) and an electron coupling reagent (phenazine methosulfate; PMS). The tetrazolium salt is reduced by living cells to yield a formazan product that can be assayed colorimetrically. Briefly, HFFs and Vero cells were seeded in 96-well plates. After 24 h, media was aspirated and 100 μl of compounds diluted in MEM at concentrations up to 100 μM were added to wells in quaduplicate. After incubation at 37° C. for 3 days, 10 μl of a solution of MTS and PMS were added to each well. The plates were incubated at 37° C. for 2 h. The absorbance of the supernatant was read at a wavelength of 492 nm to measure cell viability compared to no-drug control wells. The drug concentration was plotted against the optical density of each sample and cellular toxicity (CC50) was calculated using GraphPad Prism version 5.0 (GraphPad Inc., La Jolla, Calif., USA).

[6] = test system: Vero cells; assay: MTS cell proliferation (cytotoxicity) assay on Vero cells; settings: for therapeutic index (CC50/IC50): CC50 Vero cells, IC50 of the HSV-1 reference strain (H25); for toxicity (CC50) compared with ACV, GCV and FOS: Vero cells, MTS assay
Procedure: as §3, §4

[7] = Microsomal stability in rat liver microsomes; format: in vitro ADME; settings: Sprague-Dawley; for half-life at 2 μM: rat liver microsomes 1 mg/ml, 2 μM compound, 37° C., NADPH, read-out: Half-life (t1/2); for CLint scaled at 2 μM: rat liver microsomes
Procedure: Sprague-Dawley rat liver microsomes (concentration 1 mg/ml) were incubated at 37° C. with 2 μM of compounds 2 or 3 in PBS containing 5 mM MgCl2 and 1 mM NADPH. The antihypertensive drug reserpine was used as a reference compound. Aliquots of 50 μl were withdrawn at different time intervals and placed in 96-well plates containing 50 μL of acetonitrile on ice. Samples were then mixed and centrifuged at 3000 rpm and 10 μL were injected in a liquid chromatography system (Agilent 1100 Binary Pumps). The aliquots from liquid chromatography were subjected to mass spectrometry analysis on SCIEX API4000 with TurboIonSpray ionization source to determine the remaining percentage of the parent compound. Intrinsic clearance (Clint) estimates were determined using the rate of parent compound disappearance. The slope (-k) was determined by linear regression analysis from the linear portion of the natural logarithm of the test compound concentration versus time plot. The […] (t1/2) was calculated according to k=ln 2/t1/2. The microsomal Clint can be derived from the equation Clint=kVfu (mL/min/mg protein) where fu is the unbound fraction and V is the volume of the incubation expressed in milliliters per mg of microsomal protein. As fu is not known for the tested compounds, the calculation was performed with fu=1 (V). The Clint was also extrapolated to the whole liver protein.

[8] = Parallel Artificial Membrane Permeability Assay (PAMPA); format: in vitro ADME; settings: for Papp at 5 h: 5 h incubation, n=4, read-out: apparent permeability coefficient (Papp)
Procedure: Passive membrane permeability was determined using Parallel Artificial Membrane Permeability Assay (PAMPA). Initial concentrations of compounds 2 and 3 used for this assay were 37 and 2.5 respectively. Membrane area was 0.3 cm^2. After a 5 h incubation, fractions were taken on both sides of the membrane and compound concentrations were determined by LC-MS/MS. The apparent permeability coefficient (Papp) was calculated using the equation Papp=(dQ/dtAc0), where dQ/dt is the appearance rate of compound in the acceptor compartment, A is the surface area of the transwell membrane, and co is the initial concentration in the donor compartment.

[9] = fu=1, read-out: intrinsic clearance (Clint) extrapolated to whole rat liver

3-chloro-N-(2-{2-[(E)-2-(1-hydroxynaphthalen-2-yl)ethenyl]hydrazinyl}-2-oxoethyl)benzamide [Compound C3-2]
antiviral activity by PRA [1]: not active | antiviral activity by PRA [2]: not active | antiviral activity by PRA [3]: not active | antiviral activity by PRA [4]: not active

O=C(CNC(=O)c1cccc2ccccc12)N/N=C/c1ccccc1O [Compound 2, N-{2-[(2E)-2-(2-hydroxybenzylidene)hydrazinyl]-2-oxoethyl}naphthalene-1-carboxamide]
IC50 value increases compared to the representative wild-type strains ([1]; ACV- and/or FOS-resistant HSV-2 strains, Vero cells): 0.7 to 1.7 fold | in vitro antiviral activity (concluding summary, words) [1]: highly active | factor by which less active than ACV (IC50) [1]: 2 to 3 fold | toxicity (CC50) compared with ACV, GCV and FOS [5]: somewhat more toxic | IC50 value increases compared to the representative wild-type strains ([3]; ACV- and/or FOS-resistant HSV-1 strains, Vero cells): 0.7 to 1.7 fold | in vitro antiviral activity (concluding summary, words) [3]: highly active | factor by which less active than ACV (IC50) [3]: 2 to 3 fold | therapeutic index (CC50/IC50) [6]: 19.3 | toxicity (CC50) compared with ACV, GCV and FOS [6]: somewhat more toxic | half-life at 2 μM [7]: 33 min | CLint scaled at 2 μM [7, 9]: 37 mL/min/kg | in vitro antiviral activity (concluding summary, words) [4]: highly active | factor by which less active than ACV (IC50) ([4]; representative wild-type VZV strain, PRA): 2 to 3 fold | permeability class [8]: high (high (Papp>10)) | Papp at 5 h [8]: 11.3 ± 1.17 ×10⁻⁶ cm/s

C=CCc1cccc(/C=N/NC(=O)CNC(=O)c2cccc(Cl)c2)c1O [Compound 3, 3-chloro-N-(2-{(2E)-2-[2-hydroxy-3-(prop-2-en-1-yl)benzylidene]hydrazinyl}-2-oxoethyl)benzamide]
in vitro antiviral activity (concluding summary, words) ([2]; CMV): highly active | factor by which less active than GCV (IC50) ([2]; CMV reference strain, PRA): 2 fold | IC50 value increases compared to the representative wild-type strain ([2]; GCV- and/or FOS-resistant CMV strains, HFF cells): 1 to 2 fold | therapeutic index (CC50/IC50) ([5]; CC50 HFFs, IC50 of the CMV reference strain (AD169)): 6.6 | toxicity (CC50) compared with ACV, GCV and FOS [5]: somewhat more toxic | toxicity (CC50) compared with ACV, GCV and FOS [6]: somewhat more toxic | half-life at 2 μM [7]: 22 min | CLint scaled at 2 μM [7, 9]: 62 mL/min/kg | permeability class [8]: intermediate (intermediate (1<Papp<10)) | Papp at 5 h [8]: 3.4 ± 0.45 ×10⁻⁶ cm/s

COc1ccc(O)c(C=NNC(=O)CNC(=O)c2cccc3ccccc23)c1 [Compound 9, N-(2-(2-(2-hydroxy-5-methoxybenzylidene)hydrazino)-2-oxoethyl)-1-naphthamide]
factor by which less active than ACV (IC50) [1]: 3 to 4 fold | factor by which less active than ACV (IC50) [3]: 3 to 4 fold

O=C(CNC(=O)c1cccc2ccccc12)N/N=C/c1c(O)cccc1O [Compound C2.05, N-{2-[(2E)-2-(2,6-dihydroxybenzylidene)hydrazinyl]-2-oxoethyl}naphthalene-1-carboxamide]
antiviral activity by PRA [1]: active | antiviral activity by PRA [2]: not active | antiviral activity by PRA [3]: active against wild-type HSV-2 only | antiviral activity by PRA [4]: active against wild-type HSV-2 only

O=C(CNC(=O)c1cccc2ccccc12)N/N=C/c1ncccc1O [Compound C2.11, N-(2-{(2E)-2-[(3-hydroxypyridin-2-yl)methylidene)hydrazinyl}-2-oxoethyl)naphthalene-1-carboxamide]
antiviral activity by PRA [1]: active | antiviral activity by PRA [2]: not active | antiviral activity by PRA [3]: not against HSV-1 | antiviral activity by PRA [4]: active

O=C(CNC(=O)c1cccc2ccccc12)N/N=C/c1ccc(F)cc1O [Compound C2.20, N-{2-[(2E)-2-(4-fluoro-2-hydroxybenzylidene)hydrazinyl]-2-oxoethyl}naphthalene-1-carboxamide]
in vitro antiviral activity (concluding summary, words) [1]: retained excellent activity | antiviral activity by PRA [1]: as active | antiviral activity by PRA [2]: not active | in vitro antiviral activity (concluding summary, words) [3]: retained excellent activity | antiviral activity by PRA [3]: as active | therapeutic index (CC50/IC50) [6]: 9.6 | antiviral activity by PRA [4]: as active | in vitro antiviral activity (concluding summary, words) [4]: retained excellent activity

Cc1cccc(/C=C/NNC(=O)CNC(=O)c2cccc(Cl)c2)c1O [Compound C3-1, 3-chloro-N-(2-{2-[(E)-2-(2-hydroxy-3-methylphenyl)ethenyl]hydrazinyl}-2-oxoethyl)benzamide]
antiviral activity by PRA [1]: not active | antiviral activity by PRA [2]: not active | antiviral activity by PRA [3]: not active | antiviral activity by PRA [4]: not active

COC(=O)[C@H]1[C@H]2C[C@@H]3c4[nH]c5cc(OC)ccc5c4CCN3C[C@H]2C[C@@H](OC(=O)c2cc(OC)c(OC)c(OC)c2)[C@@H]1OC [reserpine, reference compound]
half-life at 2 μM [7]: 43 min | CLint scaled at 2 μM ([7]; reference compound, read-out: intrinsic clearance (Clint)): 28 mL/min/kg
